Experimental findings from publication PMC12343752, “Functional and structural insights into a thermostable (S)-selective amine transaminase and its improved substrate scope by protein engineering” (Applied Microbiology and Biotechnology, 2025) are described below.

The target in test [1] is T1, Sbv333-ATA (Streptomyces odorifer, UniProt A0A7Y6F089).
T1 construct: gene G6W59_16020; 6xHis-tagged, pETite vector, E. coli BL21(DE3) with GroES/GroEL, Ni-NTA (plus SEC for crystals); residues 1-459 described; dimer about 100 kDa by gel filtration; catalytic Lys289
Kind of test: glycine oxidase (GO) coupled assay; acetophenone formation at […] nm. Format: biochemical. The conditions noted are these: 2 mM amine, 50 mM HEPES pH 9.0, room temperature (GO assay).

Test [2] addresses Sbv333-ATA, (S)-selective amine transaminase from a Streptomyces strain (Streptomyces sp.). As to the kind of experiment: SEC; analytical gel filtration, single peak; methods describe a calibrated Superdex 200 pg HiLoad 16/600 column, 20 mM HEPES pH 9.0, 500 mM NaCl. A general note: Size exclusion chromatography separates by hydrodynamic size, large species first.

T1 sequence (A0A7Y6F089 entry or part of it): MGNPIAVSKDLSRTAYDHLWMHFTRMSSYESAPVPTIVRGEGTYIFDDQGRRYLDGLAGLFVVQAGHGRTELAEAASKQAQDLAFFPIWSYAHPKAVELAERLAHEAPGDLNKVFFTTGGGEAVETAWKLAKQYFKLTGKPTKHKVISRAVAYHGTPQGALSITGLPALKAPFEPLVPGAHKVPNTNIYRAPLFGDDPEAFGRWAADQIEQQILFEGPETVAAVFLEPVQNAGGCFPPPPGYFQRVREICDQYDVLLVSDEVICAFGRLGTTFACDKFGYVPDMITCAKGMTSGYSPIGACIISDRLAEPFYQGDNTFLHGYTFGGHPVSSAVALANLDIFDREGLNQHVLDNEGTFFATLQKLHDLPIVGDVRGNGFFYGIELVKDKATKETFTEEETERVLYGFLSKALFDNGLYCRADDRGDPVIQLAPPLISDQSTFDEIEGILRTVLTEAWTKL

`C[C@H](N)c1ccccc1` [compound 1, (S)-methylbenzylamine]: in test [1], the “glycine oxidase (GO) coupled assay; acetophenone formation at 245 nm” value is recorded as “The enzyme was active toward a diverse set of substrates, including (S)-methylbenzylamine ((S)-1)”.
As to “Sbv333-ATA, (S)-selective amine transaminase from a Streptomyces strain (enzyme)”, the stoichiometry N in test [2] amounted to 2.

The term stoichiometry N denotes a count of units in the complex or per binding partner.
